Laboratory results published in ChEMBL document CHEMBL1201862, “PubChem BioAssay data set” (2004).
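Where inhibition never reached the appropriate level, the endpoint shown equals the highest concentration tested. Otherwise, values were interpolated linearly from a five-concentration, 48-hour dose response in 96-well plates. Abbreviation: GI50, concentration required for 50% inhibition of growth.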 Activity calls are given as the source filed them. Rule as the data show it: active = GI50 up to about 1.1 µM and inactive = higher.

How the values were obtained:
Experiment in all cases: NCI-60 cell line screen, 48 h
786-0 = system: 786-0
ACHN = system: ACHN
CCRF-CEM = system: CCRF-CEM
DU-145 = system: DU-145
EKVX = system: EKVX
HCT-116 = system: HCT-116
HCT-15 = system: HCT-15
IGROV-1 = system: IGROV-1
KM12 = system: KM12
NCI-H226 = system: NCI-H226
NCI-H460 = system: NCI-H460
OVCAR-3 = system: OVCAR-3
OVCAR-5 = system: OVCAR-5
OVCAR-8 = system: OVCAR-8
SF-268 = system: SF-268
SK-MEL-2 = system: SK-MEL-2
SNB-75 = system: SNB-75
SR = system: SR
U-251 = system: U-251
UO-31 = system: UO-31

Compound	GI50 (786-0)	GI50 (ACHN)	GI50 (CCRF-CEM)	GI50 (DU-145)	GI50 (EKVX)	GI50 (HCT-116)	GI50 (HCT-15)	GI50 (IGROV-1)	GI50 (KM12)	GI50 (NCI-H226)	GI50 (NCI-H460)	GI50 (OVCAR-3)	GI50 (OVCAR-5)	GI50 (OVCAR-8)	GI50 (SF-268)	GI50 (SK-MEL-2)	GI50 (SNB-75)	GI50 (SR)	GI50 (U-251)	GI50 (UO-31)
O=C1Nc2ccccc2C1Cc1ccccc1 (centres undefined)	> 100 µM (inactive)	> 100 µM (inactive)	> 100 µM (inactive)	> 100 µM (inactive)	56.1 µM (inactive)	> 100 µM (inactive)	> 100 µM	> 100 µM (inactive)	> 100 µM (inactive)	> 100 µM (inactive)	> 100 µM (inactive)	> 100 µM (inactive)	> 100 µM (inactive)	> 100 µM (inactive)	> 100 µM (inactive)	> 100 µM (inactive)	0.296 µM (active)	> 100 µM (inactive)	> 100 µM (inactive)	78.5 µM (inactive)
COc1ccc2oc(=O)c(-c3csc(C)n3)cc2c1	54.2 µM (inactive)	44.4 µM (inactive)	> 100 µM (inactive)	> 100 µM (inactive)	56.5 µM (inactive)	58.3 µM (inactive)	> 100 µM	49.4 µM (inactive)	> 100 µM (inactive)	29.2 µM (inactive)	> 100 µM (inactive)	–	> 100 µM (inactive)	–	21.6 µM (inactive)	41.4 µM (inactive)	30.5 µM (inactive)	> 100 µM (inactive)	23 µM (inactive)	69.2 µM (inactive)
COc1ccc(/C=C2/CCS(=O)(=O)c3ccc(C)cc3C2=O)cc1OC	11.4 µM (inactive)	12.9 µM (inactive)	8.75 µM (inactive)	3.73 µM (inactive)	13.7 µM (inactive)	10.2 µM (inactive)	7.18 µM	6.4 µM (inactive)	11 µM (inactive)	14.3 µM (inactive)	7.74 µM (inactive)	28.1 µM (inactive)	27.5 µM (inactive)	12.3 µM (inactive)	20.5 µM (inactive)	20 µM (inactive)	12 µM (inactive)	20.6 µM (inactive)	12.8 µM (inactive)	7.48 µM (inactive)
Oc1c(N2CCCCC2)cc(-c2cc(N3CCCCC3)c(O)c3ccccc23)c2ccccc12	22.3 µM (inactive)	49.1 µM (inactive)	30.2 µM (inactive)	23.4 µM (inactive)	> 100 µM (inactive)	19 µM (inactive)	35.2 µM	43.7 µM (inactive)	64.1 µM (inactive)	> 100 µM (inactive)	43 µM (inactive)	23.3 µM (inactive)	72.4 µM (inactive)	33 µM (inactive)	26 µM (inactive)	25.2 µM (inactive)	–	0.368 µM (active)	35.2 µM (inactive)	> 100 µM (inactive)
CCN(CC)CCNc1c(OC)cc(C)c2sc3ccccc3c(=O)c12	7.53 µM (inactive)	4.46 µM (inactive)	–	11.9 µM (inactive)	16.8 µM (inactive)	4.66 µM (inactive)	4.06 µM	7.69 µM (inactive)	5.41 µM (inactive)	3.4 µM (inactive)	4.5 µM (inactive)	11.8 µM (inactive)	3.72 µM (inactive)	7.82 µM (inactive)	11 µM (inactive)	12.6 µM (inactive)	12.9 µM (inactive)	3.15 µM (inactive)	4.34 µM (inactive)	6.32 µM (inactive)
COc1c(C)c(OC)c2c(c1O)[C@@H]1[C@@H]3Cc4c(OC)c(C)c(OC)c(O)c4[C@H](CNC(=O)c4ccc5ccccc5n4)N3[C@@H](C#N)[C@H](C2)N1C	0.000494 µM (active)	0.00199 µM (active)	–	0.00206 µM (active)	0.000232 µM (active)	0.000491 µM (active)	0.0101 µM	0.000147 µM (active)	0.000371 µM (active)	0.00143 µM (active)	0.00224 µM (active)	0.000235 µM (active)	0.000726 µM (active)	0.00181 µM (active)	0.000883 µM (active)	0.000296 µM (active)	0.00262 µM (active)	0.000105 µM (active)	0.000632 µM (active)	0.00227 µM (active)
Cc1cccc(-n2c(C)nc3ccc(NC4OC(CO)C(O)C(O)C4O)cc3c2=O)c1 (centres undefined)	> 100 µM (inactive)	> 100 µM (inactive)	–	> 100 µM (inactive)	> 100 µM (inactive)	> 100 µM (inactive)	> 100 µM	> 100 µM (inactive)	> 100 µM (inactive)	> 100 µM (inactive)	> 100 µM (inactive)	> 100 µM (inactive)	> 100 µM (inactive)	> 100 µM (inactive)	> 100 µM (inactive)	61 µM (inactive)	> 100 µM (inactive)	50.7 µM (inactive)	> 100 µM (inactive)	> 100 µM (inactive)
CCOC(=O)C(C(N)=O)C1=Nc2cc([N+](=O)[O-])ccc2N/C1=C\C(=O)c1ccccc1 (centres undefined)	11.4 µM (inactive)	15.3 µM (inactive)	–	13.5 µM (inactive)	20.6 µM (inactive)	15 µM (inactive)	12.6 µM	11.2 µM (inactive)	12.1 µM (inactive)	31.3 µM (inactive)	13.4 µM (inactive)	10.3 µM (inactive)	24 µM (inactive)	16.4 µM (inactive)	12.7 µM (inactive)	15.3 µM (inactive)	17.7 µM (inactive)	3.3 µM (inactive)	11.3 µM (inactive)	19.5 µM (inactive)
Cc1nn(C(=O)c2ccc(Cl)cc2)c2c1C(c1cccc([N+](=O)[O-])c1)SC(=N)N2 (centres undefined)	> 10 µM (inactive)	> 10 µM (inactive)	> 10 µM (inactive)	> 10 µM (inactive)	> 10 µM (inactive)	> 10 µM (inactive)	2.56 µM	> 10 µM (inactive)	> 10 µM (inactive)	> 10 µM (inactive)	> 10 µM (inactive)	> 10 µM (inactive)	> 10 µM (inactive)	> 10 µM (inactive)	> 10 µM (inactive)	> 10 µM (inactive)	> 10 µM (inactive)	> 10 µM (inactive)	> 10 µM (inactive)	–
COc1nc(N)nc2c1ncn2C1CC(O)C(CO)O1 (centres undefined)	> 100 µM (inactive)	> 100 µM (inactive)	> 100 µM (inactive)	> 100 µM (inactive)	> 100 µM (inactive)	> 100 µM (inactive)	> 100 µM	> 100 µM (inactive)	> 100 µM (inactive)	> 100 µM (inactive)	> 100 µM (inactive)	> 100 µM (inactive)	> 100 µM (inactive)	> 100 µM (inactive)	> 100 µM (inactive)	> 100 µM (inactive)	> 100 µM (inactive)	> 100 µM (inactive)	> 100 µM (inactive)	> 100 µM (inactive)
COc1cccc(-c2ccc3c4c2O[C@H]2c5[nH]c6ccccc6c5C[C@@]5(O)[C@@H](C3)N(CC3CC3)CC[C@]425)c1	1.7 µM (inactive)	1.63 µM (inactive)	3.29 µM (inactive)	2.54 µM (inactive)	3.86 µM (inactive)	1.63 µM (inactive)	1.84 µM	1.64 µM (inactive)	1.85 µM (inactive)	6.84 µM (inactive)	1.79 µM (inactive)	1.9 µM (inactive)	7.08 µM (inactive)	1.65 µM (inactive)	1.61 µM (inactive)	1.69 µM (inactive)	–	1.76 µM (inactive)	1.77 µM (inactive)	1.72 µM (inactive)
C[C@H](CCC(=O)NCCS(=O)(=O)O)[C@H]1CC[C@H]2[C@@H]3[C@H](O)C[C@@H]4C[C@H](O)CC[C@]4(C)[C@H]3CC[C@]12C	> 100 µM (inactive)	> 100 µM (inactive)	> 100 µM (inactive)	> 100 µM (inactive)	> 100 µM (inactive)	> 100 µM (inactive)	> 100 µM	> 100 µM (inactive)	> 100 µM (inactive)	> 100 µM (inactive)	> 100 µM (inactive)	> 100 µM (inactive)	> 100 µM (inactive)	> 100 µM (inactive)	> 100 µM (inactive)	> 100 µM (inactive)	–	> 100 µM (inactive)	> 100 µM (inactive)	> 100 µM (inactive)
O=S(=O)(O)c1cccc2c(/N=N/c3c(O)ccc4ccccc34)cccc12	> 100 µM (inactive)	> 100 µM (inactive)	> 100 µM (inactive)	> 100 µM (inactive)	> 100 µM (inactive)	> 100 µM (inactive)	> 100 µM	> 100 µM (inactive)	> 100 µM (inactive)	> 100 µM (inactive)	–	> 100 µM (inactive)	> 100 µM (inactive)	> 100 µM (inactive)	> 100 µM (inactive)	> 100 µM (inactive)	> 100 µM (inactive)	> 100 µM (inactive)	> 100 µM (inactive)	> 100 µM (inactive)
c1ccc(-c2nc(-c3ccccc3)c(-c3ccccc3)[nH]2)cc1	54 µM (inactive)	> 100 µM (inactive)	17 µM (inactive)	> 100 µM (inactive)	> 83.6 µM (inactive)	71.9 µM (inactive)	> 100 µM	> 91.6 µM (inactive)	> 93.8 µM (inactive)	> 100 µM (inactive)	44.9 µM (inactive)	> 100 µM (inactive)	> 100 µM (inactive)	> 66.1 µM (inactive)	55.2 µM (inactive)	> 100 µM (inactive)	75 µM (inactive)	17.5 µM (inactive)	42.3 µM (inactive)	> 100 µM (inactive)
